# Read-outs that look alike come from different tables or passages of the source.
# Columns and labels:
# MOLM-13 = assay: In vitro combination studies, CellTitre-Glo cell viability; details: MOLM-13; in combination with Compound 1
# OCI-AML-2 = assay: as above; details: OCI-AML-2; in combination with Compound 1
# MV-4-11 = assay: as above; details: MV-4-11; in combination with Compound 1
# F-36-P = assay: as above; details: F-36-P; in combination with Compound 1
# HL-60 = assay: as above; details: HL-60; in combination with Compound 1
# KG-1 = assay: as above; details: KG-1; in combination with Compound 1
# OCT-AML-3 = assay: as above; details: OCI-AML-3; in combination with Compound 1
# AML cell lines = assay: In vitro combination studies, CellTitre-Glo cell viability (Bliss, Loewe, HSA, CES synergy analysis); details: FLT3 and JAK inhibitors in combination with Compound 1 in MOLM-13 and NOMO-1 cell lines
# Description: where EA and EB represent the effect of each single agent and EAB represents the effect of the combination at a given dose.
# All data was analyzed using the CES equation:
# In cases where single agent dose response fit a Hill slope, the CES analysis was compared to Loewe, Bliss, and HSA models.
# ML-2 = assay: In vitro combination studies, CellTitre-Glo cell viability; details: ML-2; in combination with Compound 1
# NOMO-1 = assay: as above; details: NOMO-1; in combination with Compound 1
# HNT-34 = assay: as above; details: HNT-34; in combination with Compound 1
# [1] = Dynamic vapor sorption (DVS) of solid forms; assay type: physicochemical; details: relative humidity increased from about 0% to about 90% RH
# Description: In certain embodiments, Form A is characterized by dynamic vapor sorption analysis. […] In certain embodiments, Form A comprises less than 0.1% water as determined in a coulometric Karl Fischer (KF) titrator equipped with an oven sample processor set at 225° C.
# In certain embodiments, Form B is characterized by dynamic vapor sorption analysis. […] In certain embodiments, Form B comprises less than 0.1% water as determined in a coulometric Karl Fischer (KF) titrator equipped with an oven sample processor set at 225° C.
# In certain embodiments, Form C is characterized by dynamic vapor sorption analysis. […] In certain embodiments, Form C comprises less than 0.1% water as determined in a coulometric Karl Fischer (KF) titrator equipped with an oven sample processor set at 225° C.
# physchem = assay type: physicochemical
# Description: “Compound 1, Form C” or “Form C” or “API”” in the Examples herein refers to polymorph Form C of 2-(4-chlorophenyl)-N-((2-(2,6-dioxopiperidin-3-yl)-1-oxoisoindolin-5-yl)methyl)-2,2-difluoroacetamide. “Compound 1, Form A” or “Form A” in the Examples herein refers to polymorph Form A of 2-(4-chlorophenyl)-N-((2-(2,6-dioxopiperidin-3-yl)-1-oxoisoindolin-5-yl)methyl)-2,2-difluoroacetamide.
# [2] = system: stomach cancer cell line GA0087; assay: GA0087 PDX model ex vivo 3D methylcellulose CellTiter-Glo cell viability assay (IC50, matrix combination, Combination Index)
# Description: (§1) Materials and Methods: The stomach cancer cell line GA0087 was used in this study. […] Culture media was purchased from GIBCO or Sigma, USA.
# (§2) Everolimus was obtained from Selleck. Cisplatin was used as a reference drug, and was obtained from Hospira Australia pty Ltd.
# (§3) PDX tumor models were maintained at Crownbio HuPrime animal facility. Tumor growth was monitored weekly. Tumor volumes were measured in two dimensions using a caliper, and the volume was expressed in mm^3 using the formula: V=0.5 a×b^2 where a and b are the long and short diameters of the tumor, respectively. • 2. Mouse xenografts at tumor volume around 800 mm^3 were housed with sterile surgical tools and tumor tissue was minced into tiny pieces with scissors in small amount of PBS on a new tissue culture plate. • 3. The cell suspension was filtered through Falcon cell strainer. The nylon mesh was washed 3-5 times with PBS. • 4. The cell suspension was centrifuged at 1000 rpm for 5 minutes and the pellet was washed with PBS and centrifuged again. • 5. Red blood cells were removed using red blood cell lysis buffer. • 6. The cell suspension was centrifuged at 1000 rpm for 5 minutes and the pellet was washed with PBS and centrifuged again. • 7. The cell pallet was re-suspended with appropriate cell culture media for different cells. • 8. Cells were counted with Countstar by trypan blue exclusion.
# (§4) Day −1: Cell Plating • 1. The cells were harvested during the logarithmic growth period. The harvested cells were cultured with appropriate cell media and centrifuged at 1000 rpm for 3 minutes. […] (Cell concentration was adjusted according to the data base or density optimization assay). • 3. 3.5 mL of cell suspension was mixed with 6.5 mL of 1% methylcellulose. […] 90 μL cell suspensions were added to 96-well plates according to plate map with final cell density. Two duplicate plates were set up: one for day 0 reading (T0) and the other was cultured in incubator for reading at the end point.
# (§5) Day 0: T0 Plate Reading and Compound Treatment • 5.10 μL culture medium was added to T0 plate in each well for T0 reading. • 6.100 μl CellTiter-Glo® Reagent was added to each well. • 7. The contents were mixed for 2 minutes on an orbital shaker to facilitate cell lysis. • 8. The plates were allowed to incubate at room temperature for 10 minutes to stabilize luminescent signal. • 9. A backseal black sticker was placed to the bottom of each plate. • 10. The luminescence was read using EnVision Multi Label Reader. • 11.
# (§6) The solutions were stored at −20° C. […] The response score was calculated by normalizing to DMSO control. The combination index (CI) was calculated using Chou and Talalay method, wherein a CI of less than 1 indicates synergy. Cisplatin was used as control in the single compound dose response, but was not included in the combination test.
# (§7) After drug incubation, pictures for representative wells were taken using a phase contrast microscope. • 13. 100 μL CellTiter-Glo® Reagent was added to each well. • 14. Contents were mixed for 2 minutes on an orbital shaker to facilitate cell lysis. • 15. The plates were allowed to incubate at room temperature for 10 minutes to stabilize luminescent signal. • 16. Backseal black sticker was placed to the bottom of each plate. • 17. Luminescence was recorded using EnVision Multi Label Reader.
# (§8) In order to calculate IC50, a dose-response curve was fitted using nonlinear regression model with a sigmoidal dose response. The formula of surviving rate is shown below, and the IC50 was automatically produced by GraphPad Prism 5.0.
# (§9) The surviving rate (%)=(LumTest article−LumMedium control)/(LumNone treated−LumMedium control)×100%.
# [3] = as above
# Description: as §1, §2, §3, §4, §5, §6, §7, §8, §9
# [4] = system: GSPT1 expression, mTOR activation, Mcl-1 expression and Caspase-3 cleavage in AML cells; assay: Immunoblot analysis of AML cells treated with Compound 1 and everolimus; assay type: cell-based
# Description: Whole cell extracts were collected and subjected to immunoblot analysis.
# [5] = system: primary human tumor xenograft model GA0087; assay: HuPrime gastric cancer xenograft GA0087 model, in vivo efficacy; design: species or system female BALB/c nude mice; details: single agent, 1.25 mg/kg and 5 mg/kg
# Description: Tumor fragments from stock mice were harvested and used for inoculation into mice. Each mouse was inoculated subcutaneously at the right flank with primary human tumor xenograft model GA0087 tumor fragment (P7, 2-3 mm in diameter) for tumor development. […] After tumor inoculation, the animals were checked daily for morbidity and mortality. At the time of routine monitoring, the animals were checked for any effects of tumor growth and treatments on normal behavior such as mobility, food and water consumption, body weight gain/loss, eye/hair matting and any other abnormal effect. Death of euthanized mouse was recorded. All groups were terminated on Day 40. Three tumors in each group, with tumor volume near median of each group were collected. Plasma of the same mice were collected. For comparison among three or more groups, one-way ANOVA was performed followed by multiple comparison procedures. All data were analyzed using SPSS 18.0. P values <0.05 is considered to be statistically significant.
# [6] = system: GSPT1 and mTORC1 effectors in BON cells; assay: Western blot of BON cell lysates after 120 h treatment; assay type: cell-based
# Description: BON cells were cultured in DMEM: F12K media containing 10% fetal bovine serum and penicillin/streptomycin antibiotics. […] Cells were harvested and probed with antibodies for western blots and imaged using a Li-Cor Odyssey imaging system. All total and phosphorylated antibodies were obtained from Cell Signaling Technology.
# [7] = system: human QGP1 pancreatic somatostatinoma xenografts
# Description: Treatment began on Day 1 in nine groups of mice (n=10) with established subcutaneous QGP1 tumors. […] Tumors were measured using calipers twice each week to the end of the study on Day 52. Three tumors at or near the group median tumor volume 2000 mm^3 endpoint were sampled from each group.
# Treatment efficacy was based on tumor growth inhibition (TGI), defined as the difference between the final (Day 52) median tumor volumes (MTVs) of treated and control mice. The results were analyzed utilizing the Mann-Whitney U-test, and were deemed statistically significant at P≤0.05. Drug tolerability was assessed by body weight measurements and by frequent observation of treated animals.
# [8] = system: IL3 independent JAK2 V617F BaF3 cells; assay: Combination studies with JAK2 inhibitors in engineered BaF3 cells, CellTitre-Glo after 3 days; assay type: cell-based; details: compared to the IL3 dependent lines
# Description: Everolimus was included as a control. The cell viability was then measured by CellTitre-Glo® after 3 days.
# [9] = patients, literature value; read-out: clinical Cmax; cited from earlier work
# [10] = read-out: Absolute IC50, GA0087-1st experiment
# [11] = read-out: Absolute IC50, GA0087-2nd experiment
compound,measurement,setting,value
CC1(COc2ccc3c(c2)ncn3-c2ccc3cccc(N4CCC(N)CC4)c3n2)COC1 [Crenolanib],Synergy analysis for combinations with Compound 1,MOLM-13,Yes
same,Synergy analysis for combinations with Compound 1,OCI-AML-2,No
same,Synergy analysis for combinations with Compound 1,MV-4-11,Yes
same,Synergy analysis for combinations with Compound 1,F-36-P,No
same,Synergy analysis for combinations with Compound 1,HL-60,No
same,Synergy analysis for combinations with Compound 1,KG-1,No
same,Synergy analysis for combinations with Compound 1,OCT-AML-3,No
same,Synergy,AML cell lines,Yes
same,Synergy analysis for combinations with Compound 1,ML-2,No
same,Synergy analysis for combinations with Compound 1,NOMO-1,No
same,Synergy analysis for combinations with Compound 1,HNT-34,No
CC[C@@](C)(Nc1ccnc(-c2c[nH]c3ncccc23)n1)C(=O)NCC(F)(F)F [Decernotinib],Synergy,AML cell lines,Yes
O=C(Nc1nc2cccc(-c3ccc(CN4CCS(=O)(=O)CC4)cc3)n2n1)C1CC1 [Filgotinib],Synergy,AML cell lines,Yes
"O=C1CCC(N2Cc3cc(CNC(=O)C(F)(F)c4ccc(Cl)cc4)ccc3C2=O)C(=O)N1 (stereo not drawn) [Form A, 2-(4-chlorophenyl)-N-((2-(2,6-dioxopiperidin-3-yl)-1-oxoisoindolin-5-yl)methyl)-2,2-difluoroacetamide]",water uptake (DVS),[1],about 1.2 % w/w
"O=C1CCC(N2Cc3cc(CNC(=O)C(F)(F)c4ccc(Cl)cc4)ccc3C2=O)C(=O)N1 (stereo not drawn) [Form B, 2-(4-chlorophenyl)-N-((2-(2,6-dioxopiperidin-3-yl)-1-oxoisoindolin-5-yl)methyl)-2,2-difluoroacetamide]",water uptake (DVS),[1],about 1.4 % w/w
"O=C1CCC(N2Cc3cc(CNC(=O)C(F)(F)c4ccc(Cl)cc4)ccc3C2=O)C(=O)N1 (stereo not drawn) [Form C, 2-(4-chlorophenyl)-N-((2-(2,6-dioxopiperidin-3-yl)-1-oxoisoindolin-5-yl)methyl)-2,2-difluoroacetamide]",water uptake (DVS),[1],about 0.6 % w/w
same,thermodynamic stability among the crystal forms,physchem,most thermodynamically stable anhydrate
FC(F)(F)c1ccc(CNc2ccc(Cc3c[nH]c4ncc(Cl)cc34)cn2)cn1 [Pexidartinib],Synergy analysis for combinations with Compound 1,MOLM-13,Yes
same,Synergy analysis for combinations with Compound 1,OCI-AML-2,No
same,Synergy analysis for combinations with Compound 1,MV-4-11,Yes
same,Synergy analysis for combinations with Compound 1,F-36-P,No
same,Synergy analysis for combinations with Compound 1,HL-60,No
same,Synergy analysis for combinations with Compound 1,KG-1,No
same,Synergy analysis for combinations with Compound 1,OCT-AML-3,No
same,Synergy,AML cell lines,Yes
same,Synergy analysis for combinations with Compound 1,ML-2,No
same,Synergy analysis for combinations with Compound 1,NOMO-1,No
same,Synergy analysis for combinations with Compound 1,HNT-34,No
N.N.[Cl][Pt][Cl] [cisplatin],Maximal Inhibition,[2]; GA0087-1st experiment,98.73%
same,Maximal Inhibition,[2]; GA0087-2nd experiment,98.48%
same,IC50,[3]; [10],3.35 µM
same,IC50,[3]; [11],3.53 µM
same,IC50,"[3]; read-out: Relative IC50, GA0087-1st experiment",3.17 µM
same,IC50,"[3]; read-out: Relative IC50, GA0087-2nd experiment",3.3 µM
"CO[C@H]1C[C@@H]2CC[C@@H](C)[C@@](O)(O2)C(=O)C(=O)N2CCCC[C@H]2C(=O)O[C@H]([C@H](C)C[C@@H]2CC[C@@H](OCCO)[C@H](OC)C2)CC(=O)[C@H](C)/C=C(\C)[C@@H](O)[C@@H](OC)C(=O)[C@H](C)C[C@H](C)/C=C/C=C/C=C/1C [everolimus, reference compound]",Synergy analysis for combinations with Compound 1,MOLM-13,Yes
same,Synergy analysis for combinations with Compound 1,OCI-AML-2,Yes
same,"GSPT1 expression/degradation, Mcl-1 loss, Caspase-3 cleavage",[4],minimal effect
same,activation of the mTOR pathway (phosphorylation of S6K1 and 4E-BP1),[4],significantly blocked the activation of the mTOR pathway
same,Synergy analysis for combinations with Compound 1,MV-4-11,Yes
same,Synergy analysis for combinations with Compound 1,F-36-P,Yes
same,Synergy analysis for combinations with Compound 1,HL-60,No
same,Synergy analysis for combinations with Compound 1,KG-1,No
same,Maximal Inhibition,[2]; GA0087-1st experiment,73.15%
same,Maximal Inhibition,[2]; GA0087-2nd experiment,72.80%
same,IC50,[3]; [10],0.0061 µM
same,IC50,[3]; [11],0.0075 µM
same,Synergy analysis for combinations with Compound 1,OCT-AML-3,Yes
same,Synergy analysis for combinations with Compound 1,ML-2,Yes
same,Synergy analysis for combinations with Compound 1,NOMO-1,No
same,anti-tumor activity,[5],moderate anti-tumor activity
same,"effect on mTORC1 effectors (p4EBP1, phosphorylation of S6)",[6],dramatically decreased phosphorylation of S6 and phosphorylation of 4EBP1
same,Synergy analysis for combinations with Compound 1,HNT-34,No
same,tumor growth inhibition,"[7]; 3 mg/kg i.p. qd x 21, Day 52",41%
same,tumor growth inhibition,"[7]; 10 mg/kg i.p. qd x 21, Day 52",39%
same,single agent sensitivity,[8],more sensitive
"N#CCNC(=O)c1ccc(-c2ccnc(Nc3ccc(N4CCOCC4)cc3)n2)cc1 [momelotinib, reference compound]",Synergy,AML cell lines,Yes
same,single agent sensitivity,[8],more sensitive
"C1=C/COCc2cc(ccc2OCCN2CCCC2)Nc2nccc(n2)-c2cccc(c2)COC/1 [pacritinib, reference compound]",Synergy,AML cell lines,Yes
"CC(C)(C)c1cc(NC(=O)Nc2ccc(-c3cn4c(n3)sc3cc(OCCN5CCOCC5)ccc34)cc2)no1 [quizartinib, reference compound]",Synergy,AML cell lines,Yes
N#CC[C@H](C1CCCC1)n1cc(-c2ncnc3[nH]ccc23)cn1 [ruxolitinib],Cmax,[9],500 to 1000 nM
